Measurements published in ChEMBL document CHEMBL4311943, “3-[(1S,2S,3R)-2,3-Difluoro-1-hydroxy-7-methylsulfonylindan-4-yl]oxy-5-fluorobenzonitrile (PT2977), a Hypoxia-Inducible Factor 2α (HIF-2α) Inhibitor for the Treatment of Clear Cell Renal Cell Carcinoma” (J Med Chem, 2019).
Active and inactive are the calls of the source. The calls are words filed in the database; no cut-off is given here.

Tests used:
[1] = Half life in CD-1 mouse at 3 mg/kg, iv by UPLC-MS analysis; assay type: ADME, organism-based; settings: in vivo
[2] = molecular target: Protein kinase C alpha type (Homo sapiens) (UniProt P17252); test: Activity at human PKCalpha at 10 uM
[3] = molecular target: Neuropeptide Y receptor type 2 (Homo sapiens) (UniProt P49146); test: Activity at human NPY2 receptor at 10 uM
[4] = molecular target: Glycogen synthase kinase-3 beta (Homo sapiens) (UniProt P49841); test: Activity at human GSK3beta at 10 uM
[5] = molecular target: Prostaglandin F2-alpha receptor (Homo sapiens) (UniProt P43088); test: Activity at human Prostanoid FP receptor at 10 uM
[6] = molecular target: Protein kinase C epsilon type (Homo sapiens) (UniProt Q02156); test: Activity at human PKCepsilon at 10 uM
[7] = molecular target: Thyrotropin receptor (Homo sapiens) (UniProt P16473); test: Activity at human TSH at 10 uM
[8] = molecular target: 5-hydroxytryptamine receptor 1A (Homo sapiens) (UniProt P08908); test: Activity at human 5-HT1A receptor at 10 uM
5-hydroxytryptamine receptor 1A (Homo sapiens), sequence (P08908 whole entry): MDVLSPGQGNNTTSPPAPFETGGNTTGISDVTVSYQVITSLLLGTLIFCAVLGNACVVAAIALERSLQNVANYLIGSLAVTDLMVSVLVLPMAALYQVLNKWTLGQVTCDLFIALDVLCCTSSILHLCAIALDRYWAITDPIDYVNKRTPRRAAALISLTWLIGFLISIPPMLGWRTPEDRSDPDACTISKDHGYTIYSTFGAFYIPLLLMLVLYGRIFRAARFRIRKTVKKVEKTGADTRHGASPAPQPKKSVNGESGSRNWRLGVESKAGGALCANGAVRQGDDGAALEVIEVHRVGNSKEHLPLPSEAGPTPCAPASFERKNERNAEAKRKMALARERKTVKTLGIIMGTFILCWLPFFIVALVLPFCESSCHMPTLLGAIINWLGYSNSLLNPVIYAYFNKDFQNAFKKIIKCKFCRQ

[9] = Dose normalized AUClast in Beagle dog at 5 mg/kg, po administered via gavage by UPLC-MS analysis; assay type: ADME, organism-based, Canis lupus familiaris; settings: in vivo
[10] = molecular target: Prostacyclin receptor (Homo sapiens) (UniProt P43119); test: Activity at human Prostanoid IP1 receptor at 10 uM; assay type: functional
[11] = molecular target: D(1B) dopamine receptor (Homo sapiens) (UniProt P21918); test: Activity at human D5 receptor at 10 uM
D(1B) dopamine receptor (Homo sapiens), sequence (P21918 whole entry): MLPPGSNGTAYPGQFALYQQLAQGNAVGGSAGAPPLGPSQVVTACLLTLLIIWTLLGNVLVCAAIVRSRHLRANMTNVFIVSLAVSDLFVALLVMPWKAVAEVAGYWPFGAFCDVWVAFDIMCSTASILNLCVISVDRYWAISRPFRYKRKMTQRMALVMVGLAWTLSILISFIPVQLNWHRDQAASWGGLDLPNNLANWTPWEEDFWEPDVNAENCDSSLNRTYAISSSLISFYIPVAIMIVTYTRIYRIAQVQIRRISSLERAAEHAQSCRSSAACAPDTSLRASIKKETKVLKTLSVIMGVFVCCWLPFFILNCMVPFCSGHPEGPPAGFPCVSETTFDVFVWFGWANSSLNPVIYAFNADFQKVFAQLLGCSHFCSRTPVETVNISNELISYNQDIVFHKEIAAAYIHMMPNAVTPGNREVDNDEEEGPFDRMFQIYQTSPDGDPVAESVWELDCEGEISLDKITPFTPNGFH

[12] = molecular target: Receptor-type tyrosine-protein kinase FLT3 (Homo sapiens) (UniProt P36888); test: Activity at human Flt3 at 10 uM
[13] = Protein binding in human plasma at 10 uM measured after 4 hrs by LC-MS/MS analysis; assay type: ADME, cell-free; settings: read-out: PPB (converted)
[14] = molecular target: CDK3/Cyclin E (Homo sapiens) (UniProt P24864+Q00526); test: Activity at human CDK3/cyclinE at 10 uM; assay type: protein-complex assay
[15] = molecular target: Cyclin-dependent kinase 1/cyclin B1 (Homo sapiens) (UniProt P06493+P14635); test: Activity at human CDK1/cyclinB at 10 uM; assay type: protein-complex assay
[16] = molecular target: Corticotropin-releasing factor receptor 1 (Homo sapiens) (UniProt P34998); test: Activity at human CRF1 receptor at 10 uM
[17] = molecular target: Thromboxane A2 receptor (Homo sapiens) (UniProt P21731); test: Activity at human Prostanoid TP receptor at 10 uM
[18] = molecular target: Vasoactive intestinal polypeptide receptor 1 (Homo sapiens) (UniProt P32241); test: Activity at human VPAC1 long isoform at 10 uM
[19] = Plasma concentration in patient with advanced solid tumor at 80 mg, po administered once daily measured on day 15 after 24 hrs; assay type: ADME, organism-based; settings: human
[20] = molecular target: Lysophosphatidic acid receptor 3 (Homo sapiens) (UniProt Q9UBY5); test: Activity at human LPA3 receptor at 10 uM
Lysophosphatidic acid receptor 3 (Homo sapiens), sequence (Q9UBY5 whole entry): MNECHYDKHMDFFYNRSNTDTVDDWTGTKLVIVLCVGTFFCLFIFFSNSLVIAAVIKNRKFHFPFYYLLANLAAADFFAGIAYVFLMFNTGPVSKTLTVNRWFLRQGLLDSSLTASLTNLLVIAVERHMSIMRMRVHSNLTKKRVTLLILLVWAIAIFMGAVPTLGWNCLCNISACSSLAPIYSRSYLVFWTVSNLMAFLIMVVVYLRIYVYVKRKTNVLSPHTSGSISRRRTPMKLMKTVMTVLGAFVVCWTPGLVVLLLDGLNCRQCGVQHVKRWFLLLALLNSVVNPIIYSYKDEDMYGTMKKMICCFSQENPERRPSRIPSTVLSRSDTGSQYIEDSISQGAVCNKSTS

[21] = molecular target: Melanocortin receptor 5 (Homo sapiens) (UniProt P33032); test: Activity at human MC5 receptor at 10 uM
[22] = molecular target: Vasopressin V2 receptor (Homo sapiens) (UniProt P30518); test: Activity at human V2 receptor at 10 uM
[23] = molecular target: Hydroxycarboxylic acid receptor 2 (Homo sapiens) (UniProt Q8TDS4); test: Activity at human GPR109A receptor at 10 uM
Hydroxycarboxylic acid receptor 2 (Homo sapiens), sequence (Q8TDS4 whole entry): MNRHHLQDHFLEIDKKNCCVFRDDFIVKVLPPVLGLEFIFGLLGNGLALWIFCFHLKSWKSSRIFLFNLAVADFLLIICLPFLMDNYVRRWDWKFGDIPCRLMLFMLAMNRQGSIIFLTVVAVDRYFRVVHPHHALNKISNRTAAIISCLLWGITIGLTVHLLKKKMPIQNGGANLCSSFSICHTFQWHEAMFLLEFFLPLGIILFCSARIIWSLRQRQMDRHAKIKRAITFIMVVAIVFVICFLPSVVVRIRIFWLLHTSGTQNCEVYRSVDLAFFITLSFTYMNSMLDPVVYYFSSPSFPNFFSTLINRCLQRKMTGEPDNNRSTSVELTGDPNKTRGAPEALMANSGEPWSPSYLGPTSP

[24] = Dose normalized AUClast in Sprague-Dawley rat at 10 mg/kg, po administered via gavage by UPLC-MS analysis; assay type: ADME, organism-based; settings: in vivo
[25] = molecular target: C-C chemokine receptor type 2 (Homo sapiens) (UniProt P41597); test: Activity at human CCR2B receptor at 10 uM
[26] = organism: Homo sapiens; test: Activity at human BB2 receptor at 10 uM
[27] = molecular target: Cytochrome P450 2C8 (Homo sapiens, UniProt P10632); test: Inhibition of CYP2C8 in human liver microsomes up to 50 uM using amodiaquine as substrate measured after 10 mins in presence of NADPH by LC-MS/MS analysis; assay type: ADME
Cytochrome P450 2C8, sequence (P10632 whole entry): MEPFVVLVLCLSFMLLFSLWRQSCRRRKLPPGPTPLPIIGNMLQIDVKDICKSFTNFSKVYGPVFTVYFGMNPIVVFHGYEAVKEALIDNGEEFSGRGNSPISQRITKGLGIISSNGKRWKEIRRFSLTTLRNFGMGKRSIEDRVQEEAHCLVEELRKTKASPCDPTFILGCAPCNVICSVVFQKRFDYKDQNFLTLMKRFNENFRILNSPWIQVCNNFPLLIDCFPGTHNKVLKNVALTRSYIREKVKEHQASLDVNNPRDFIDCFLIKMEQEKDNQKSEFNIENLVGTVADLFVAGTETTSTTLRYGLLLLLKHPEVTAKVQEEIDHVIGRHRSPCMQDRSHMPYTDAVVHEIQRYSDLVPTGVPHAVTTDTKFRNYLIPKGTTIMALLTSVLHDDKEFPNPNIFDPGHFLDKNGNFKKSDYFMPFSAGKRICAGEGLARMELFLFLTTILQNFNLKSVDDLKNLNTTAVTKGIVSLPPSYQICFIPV

[28] = molecular target: Histamine H1 receptor (Homo sapiens) (UniProt P35367); test: Activity at human H1 receptor at 10 uM
[29] = molecular target: Rho-associated protein kinase 2 (Homo sapiens) (UniProt O75116); test: Activity at human ROCK2 at 10 uM
[30] = molecular target: Neuromedin-K receptor (Homo sapiens) (UniProt P29371); test: Activity at human NK3 receptor at 10 uM
[31] = molecular target: Parathyroid hormone/parathyroid hormone-related peptide receptor (Homo sapiens) (UniProt Q03431); test: Activity at human PTH1 receptor at 10 uM
[32] = molecular target: Muscarinic acetylcholine receptor M1 (Homo sapiens) (UniProt P11229); test: Activity at human M1 receptor at 10 uM
[33] = molecular target: Galanin receptor type 1 (Homo sapiens) (UniProt P47211); test: Activity at human GAL1 receptor at 10 uM
[34] = molecular target: Muscarinic acetylcholine receptor M2 (Homo sapiens) (UniProt P08172); test: Activity at human M2 receptor at 10 uM
[35] = molecular target: 5-hydroxytryptamine receptor 2B (Homo sapiens) (UniProt P41595); test: Activity at human 5-HT2B receptor at 10 uM
[36] = molecular target: Vasopressin V1a receptor (Homo sapiens) (UniProt P37288); test: Activity at human V1A receptor at 10 uM
Vasopressin V1a receptor (Homo sapiens), sequence (P37288 whole entry, looked up): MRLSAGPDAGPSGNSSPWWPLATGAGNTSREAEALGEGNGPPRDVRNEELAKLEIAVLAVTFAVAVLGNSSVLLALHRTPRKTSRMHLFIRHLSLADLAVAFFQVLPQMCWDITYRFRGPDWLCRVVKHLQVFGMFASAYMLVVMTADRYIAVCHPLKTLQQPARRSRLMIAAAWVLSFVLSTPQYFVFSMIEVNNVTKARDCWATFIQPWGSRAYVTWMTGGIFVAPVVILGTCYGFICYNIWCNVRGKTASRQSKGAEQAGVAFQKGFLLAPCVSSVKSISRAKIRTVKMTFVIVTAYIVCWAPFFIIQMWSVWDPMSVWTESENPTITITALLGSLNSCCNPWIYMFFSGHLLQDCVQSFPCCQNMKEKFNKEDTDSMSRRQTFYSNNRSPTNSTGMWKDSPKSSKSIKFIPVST

[37] = Cmax in patient with advanced solid tumor at 20 mg, po administered once daily measured on day 15; assay type: ADME, organism-based; parameters: dose 20 mg, route oral; settings: human, in vivo
[38] = Half life in patient with advanced solid tumor at 80 mg, po administered once daily measured on day 15; assay type: ADME, organism-based; settings: human, in vivo
[39] = Plasma concentration in patient with advanced solid tumor at 160 mg, po administered once daily measured on day 15 after 24 hrs; assay type: ADME, organism-based; settings: human
[40] = molecular target: C5a anaphylatoxin chemotactic receptor 1 (Homo sapiens) (UniProt P21730); test: Activity at human C5a receptor at 10 uM
C5a anaphylatoxin chemotactic receptor 1 (Homo sapiens), sequence (P21730 whole entry): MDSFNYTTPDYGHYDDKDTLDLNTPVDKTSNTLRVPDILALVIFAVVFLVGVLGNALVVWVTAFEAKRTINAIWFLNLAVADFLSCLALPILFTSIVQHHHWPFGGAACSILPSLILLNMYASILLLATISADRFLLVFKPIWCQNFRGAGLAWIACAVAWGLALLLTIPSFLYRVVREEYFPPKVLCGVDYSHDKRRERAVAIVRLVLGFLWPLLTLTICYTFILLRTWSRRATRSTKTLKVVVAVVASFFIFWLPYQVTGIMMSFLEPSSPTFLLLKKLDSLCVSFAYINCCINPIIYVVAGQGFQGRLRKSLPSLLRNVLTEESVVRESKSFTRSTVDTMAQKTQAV

[41] = molecular target: Lysophosphatidic acid receptor 1 (Homo sapiens) (UniProt Q92633); test: Activity at human LPA1 receptor at 10 uM
[42] = molecular target: Oxytocin receptor (Homo sapiens) (UniProt P30559); test: Activity at human oxytocin receptor at 10 uM
[43] = molecular target: Cannabinoid receptor 1 (Homo sapiens) (UniProt P21554); test: Activity at human CB1 receptor at 10 uM
Cannabinoid receptor 1 (Homo sapiens), sequence (P21554 whole entry): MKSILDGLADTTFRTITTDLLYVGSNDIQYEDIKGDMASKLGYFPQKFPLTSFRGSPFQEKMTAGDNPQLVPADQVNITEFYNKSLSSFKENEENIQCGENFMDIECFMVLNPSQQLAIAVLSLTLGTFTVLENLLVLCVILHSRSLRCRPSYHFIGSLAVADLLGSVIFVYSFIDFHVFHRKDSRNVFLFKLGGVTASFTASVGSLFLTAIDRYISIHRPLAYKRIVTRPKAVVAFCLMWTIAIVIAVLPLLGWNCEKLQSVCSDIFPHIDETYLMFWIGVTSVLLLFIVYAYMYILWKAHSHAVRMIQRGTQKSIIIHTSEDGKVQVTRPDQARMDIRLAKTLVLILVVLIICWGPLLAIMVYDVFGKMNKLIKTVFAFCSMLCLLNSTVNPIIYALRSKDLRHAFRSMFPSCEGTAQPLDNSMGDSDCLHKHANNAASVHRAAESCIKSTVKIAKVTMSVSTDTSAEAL

[44] = Half life in patient with advanced solid tumor at 120 mg, po administered once daily measured on day 15; assay type: ADME, organism-based; settings: human, in vivo
[45] = molecular target: Alpha-1D adrenergic receptor (Homo sapiens) (UniProt P25100); test: Activity at human alpha1D receptor at 10 uM
Alpha-1D adrenergic receptor (Homo sapiens), sequence (P25100 whole entry): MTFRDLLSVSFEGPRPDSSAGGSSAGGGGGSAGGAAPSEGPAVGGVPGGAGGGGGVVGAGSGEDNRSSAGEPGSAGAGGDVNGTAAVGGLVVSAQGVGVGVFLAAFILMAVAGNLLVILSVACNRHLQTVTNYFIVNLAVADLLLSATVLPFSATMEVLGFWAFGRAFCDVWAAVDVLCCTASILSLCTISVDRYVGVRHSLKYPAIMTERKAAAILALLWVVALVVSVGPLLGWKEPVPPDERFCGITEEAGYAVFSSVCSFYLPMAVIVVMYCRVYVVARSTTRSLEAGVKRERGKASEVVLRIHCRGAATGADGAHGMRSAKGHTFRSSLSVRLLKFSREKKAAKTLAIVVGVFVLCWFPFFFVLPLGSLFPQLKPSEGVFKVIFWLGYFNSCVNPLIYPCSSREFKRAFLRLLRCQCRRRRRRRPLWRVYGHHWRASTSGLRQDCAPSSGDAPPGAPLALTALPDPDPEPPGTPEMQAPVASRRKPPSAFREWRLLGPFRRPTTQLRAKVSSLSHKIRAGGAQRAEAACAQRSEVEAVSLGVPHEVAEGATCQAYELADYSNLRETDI

[46] = Half life in patient with advanced solid tumor at 20 mg, po administered once daily measured on day 15; assay type: ADME, organism-based; settings: human, in vivo
[47] = molecular target: Leukotriene B4 receptor 1 (Homo sapiens) (UniProt Q15722); test: Activity at human BLT1 receptor at 10 uM
[48] = molecular target: Prostaglandin E2 receptor EP2 subtype (Homo sapiens) (UniProt P43116); test: Activity at human Prostanoid EP2 receptor at 10 uM
Prostaglandin E2 receptor EP2 subtype (Homo sapiens), sequence (P43116 whole entry): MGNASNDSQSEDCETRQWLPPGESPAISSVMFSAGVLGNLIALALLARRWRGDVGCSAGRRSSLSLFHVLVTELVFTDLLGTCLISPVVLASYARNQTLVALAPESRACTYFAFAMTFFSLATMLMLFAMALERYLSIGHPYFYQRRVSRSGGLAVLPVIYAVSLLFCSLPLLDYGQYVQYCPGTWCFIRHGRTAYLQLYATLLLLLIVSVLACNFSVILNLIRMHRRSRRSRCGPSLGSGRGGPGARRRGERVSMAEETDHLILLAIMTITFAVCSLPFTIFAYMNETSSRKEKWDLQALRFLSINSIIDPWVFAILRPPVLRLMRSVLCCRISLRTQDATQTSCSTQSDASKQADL

CS(=O)(=O)c1ccc(Oc2cc(F)cc(C#N)c2)c2c1[C@H](O)[C@H](F)[C@@H]2F [BELZUTIFAN]
half-life [1]: 4 h | Activity [2]: inactive | Activity [3]: inactive | Activity [4]: inactive | Activity [5]: inactive | Activity [6]: inactive | Activity [7]: inactive | Activity [8]: inactive | AUClast/dose [9]: 60 µM·h | Activity [10]: inactive | Activity [11]: inactive | Activity [12]: inactive | fraction unbound at 4 h, 10 µM [13]: 0.48 | Activity [14]: inactive | Activity [15]: inactive | Activity [16]: inactive | Activity [17]: inactive | Activity [18]: inactive | concentration at 24 h [19]: 490 ng/mL | Activity [20]: inactive | Activity [21]: inactive | Activity [22]: inactive | Activity [23]: inactive | AUClast/dose [24]: 13 µM·h | Activity [25]: inactive | Activity [26]: inactive | inhibition (INH) [27]: Not Active | Activity [28]: inactive | Activity [29]: inactive | Activity [30]: inactive | Activity [31]: inactive | Activity [32]: inactive | Activity [33]: inactive | Activity [34]: inactive | Activity [35]: inactive | Activity [36]: inactive | Cmax [37]: 200 ng/mL | half-life [38]: 15.4 h | concentration at 24 h [39]: 490 ng/mL | Activity [40]: inactive | Activity [41]: inactive | Activity [42]: inactive | Activity [43]: inactive | half-life [44]: 20.9 h | Activity [45]: inactive | half-life [46]: 12.5 h | Activity [47]: inactive | Activity [48]: inactive
